Laboratory results: US10544130B2, “Metallo-beta-lactamase inhibitors” (priority 2015, dated 2020)

System: Pseudomonas aeruginosa PAO1 MB9798 (efflux+, IMP-1)
Settings: ratio MITC95 PA 9798/MITC95 PA 9799; imipenem at 2 μg/mL
From the text: The strain background was Pseudomonas aeruginosa PAO1.
The strain set was then used as a pair to determine the effect of metallo-β-lactamase inhibitors of Formula I on the MIC of imipenem and/or ceftazidime. A fixed concentration of antibiotic was included in standard microbroth MIC tests, usually at the CLSI (Clinical and Laboratory Standards Institute) breakpoint concentration. A fixed amount of a class A/C beta-lactamase inhibitor was also included to inhibit the resident Pseudomonas AmpC enzyme. A serial titration of the metallo-β-lactamase inhibitor was included and the concentration of metallo-β-lactamase inhibitor which restores susceptibility of the strain to the included antibiotic was recorded. That concentration of metallo-β-lactamase inhibitor was then compared between the two strains to determine the fold difference between the efflux + (MB9798) and efflux − (MB9799) strains. This was taken as an indication of the extent to which the MBLi is subject to efflux.

COc1ccnc(CNS(=O)(=O)c2ccc(-c3cccc4sc(N)nc34)c(-c3nnn[nH]3)c2S(N)(=O)=O)n1 [Example 34, 4-(2-amino-1,3-benzothiazol-4-yl)-N1-[(4-methoxypyrimidin-2-yl)methyl]-3-(1H-tetrazol-5-yl)benzene-1,2-disulfonamide]
Efflux ratio: 4.00

Nc1nc2c(-c3ccc(S(=O)(=O)NC4CCc5nccn5C4)c(S(N)(=O)=O)c3-c3nnn[nH]3)cccc2s1 (stereo not shown) [Example 35, 4-(2-amino-1,3-benzothiazol-4-yl)-N1-(5,6,7,8-tetrahydroimidazo[1,2-a]pyridin-6-yl)-3-(1H-tetrazol-5-yl)benzene-1,2-disulfonamide]
Efflux ratio: 2.00

CN(C)C(=O)CNS(=O)(=O)c1ccc(-c2cccc3sc(N)nc23)c(-c2nnn[nH]2)c1S(N)(=O)=O [Example 36, N^2-{[4-(2-amino-1,3-benzothiazol-4-yl)-2-sulfamoyl-3-(1H-tetrazol-5-yl)phenyl]sulfonyl}-N,N-dimethylglycinamide]
Efflux ratio: 1.00

Nc1nc2c(-c3ccc(S(=O)(=O)NCC4(CO)CC4)c(S(N)(=O)=O)c3-c3nnn[nH]3)cccc2s1 [Example 37, 4-(2-amino-1,3-benzothiazol-4-yl)-N1-{[1-(hydroxymethyl)cyclopropyl]methyl}-3-(1H-tetrazol-5-yl)benzene-1,2-disulfonamide]
Efflux ratio: 1.00

CN1CC2(CCN(S(=O)(=O)c3ccc(-c4cccc5sc(N)nc45)c(-c4nnn[nH]4)c3S(N)(=O)=O)C2)C1 [Example 38, 3-(2-amino-1,3-benzothiazol-4-yl)-6-[(2-methyl-2,6-diazaspiro[3.4]oct-6-yl)sulfonyl]-2-(1H-tetrazol-5-yl)benzenesulfonamide]
Efflux ratio: 1.00

CN(C)C1CN(S(=O)(=O)c2ccc(-c3cccc4sc(N)nc34)c(-c3nnn[nH]3)c2S(N)(=O)=O)C1 [Example 39, 3-(2-amino-1,3-benzothiazol-4-yl)-6-{[3-(dimethylamino)azetidin-l-yl]sulfonyl}-2-(1H-tetrazol-5-yl)benzenesulfonamide]
Efflux ratio: 16.00

Nc1nc2c(-c3ccc(S(=O)(=O)N4CC5CC4CS5(=O)=O)c(S(N)(=O)=O)c3-c3nnn[nH]3)cccc2s1 (stereo not shown) [Example 40, 3-(2-amino-1,3-benzothiazol-4-yl)-6-[(2,2-dioxido-2-thia-5-azabicyclo[2.2.1]hept-5-yl)sulfonyl]-2-(1H-tetrazol-5-yl)benzenesulfonamide]
Efflux ratio: 16.00

CN(C1CCS(=O)(=O)C1)S(=O)(=O)c1ccc(-c2cccc3sc(N)nc23)c(-c2nnn[nH]2)c1S(N)(=O)=O (stereo not shown) [Example 41, 4-(2-amino-1,3-benzothiazol-4-yl)-N^1-(1,1-dioxidotetrahydrothiophen-3-yl)-N~1~-methyl-3-(1H-tetrazol-5-yl)benzene-1,2-disulfonamide]
Efflux ratio: 8.00

Nc1nc2c(-c3ccc(S(=O)(=O)N4CC[S+]([O-])CC4)c(S(N)(=O)=O)c3-c3nnn[nH]3)cccc2s1 [Example 44, 3-(2-amino-1,3-benzothiazol-4-yl)-6-[(1-oxidothiomorpholin-4-yl)sulfonyl]-2-(1H-tetrazol-5-yl)benzenesulfonamide]
Efflux ratio: 2.00

Nc1nc2c(-c3ccc(S(=O)(=O)NCC4(F)CNC4)c(S(N)(=O)=O)c3-c3nnn[nH]3)cccc2s1 [Example 46, 4-(2-amino-1,3-benzothiazol-4-yl)-N^1-[(3-fluoroazetidin-3-yl)methyl]-3-(1H-tetrazol-5-yl)benzene-1,2-disulfonamide]
Efflux ratio: 0.50

NCC(F)(F)CNS(=O)(=O)c1ccc(-c2cccc3sc(N)nc23)c(-c2nnn[nH]2)c1S(N)(=O)=O [Example 47, 4-(2-amino-1,3-benzothiazol-4-yl)-N1-(3-amino-2,2-difluoropropyl)-3-(1H-tetrazol-5-yl)benzene-1,2-disulfonamide]
Efflux ratio: 1.00

Nc1nc2c(-c3ccc(S(=O)(=O)N4CC5(CCNC5)C4)c(S(N)(=O)=O)c3-c3nnn[nH]3)cccc2s1 [Example 48, 3-(2-amino-1,3-benzothiazol-4-yl)-6-(2,6-diazaspiro[3.4]oct-2-ylsulfonyl)-2-(1H-tetrazol-5-yl)benzenesulfonamide]
Efflux ratio: 1.00

Nc1nc2c(-c3ccc(S(=O)(=O)NCCC(N)C(F)(F)F)c(S(N)(=O)=O)c3-c3nnn[nH]3)cccc2s1 (stereo not shown) [Example 49, 4-(2-amino-1,3-benzothiazol-4-yl)-N1-(3-amino-4,4,4-trifluorobutyl)-3-(1H-tetrazol-5-yl)benzene-1,2-disulfonamide]
Efflux ratio: 8.00

Nc1nc2c(-c3ccc(S(=O)(=O)N[C@H]4CO[C@H]5[C@H]4OC[C@H]5O)c(S(N)(=O)=O)c3-c3nnn[nH]3)cccc2s1 [Example 50, 2-({[4-(2-amino-1,3-benzothiazol-4-yl)-2-sulfamoyl-3-(1H-tetrazol-5-yl)phenyl]sulfonyl}amino)-1,4:3,6-dianhydro-2-deoxy-D-allitol]
Efflux ratio: 2.00

CC(CN1CCOCC1)NS(=O)(=O)c1ccc(-c2cccc3sc(N)nc23)c(-c2nnn[nH]2)c1S(N)(=O)=O (stereo not shown) [Example 51, 4-(2-amino-1,3-benzothiazol-4-yl)-N1-(1-methyl-2-morpholin-4-ylethyl)-3-(1H-tetrazol-5-yl)benzene-1,2-disulfonamide]
Efflux ratio: 4.00

CN(C)CCCN(C)S(=O)(=O)c1ccc(-c2cccc3sc(N)nc23)c(-c2nnn[nH]2)c1S(N)(=O)=O [Example 52, 4-(2-amino-1,3-benzothiazol-4-yl)-N1-[3-(dimethylamino)propyl]-N~1~-methyl-3-(1H-tetrazol-5-yl)benzene-1,2-disulfonamide]
Efflux ratio: 2.00

CN1CCC(NS(=O)(=O)c2ccc(-c3cccc4sc(N)nc34)c(-c3nnn[nH]3)c2S(N)(=O)=O)C1 (stereo not shown) [Example 53, 4-(2-amino-1,3-benzothiazol-4-yl)-N1-(1-methylpyrrolidin-3-yl)-3-(1H-tetrazol-5-yl)benzene-1,2-disulfonamide]
Efflux ratio: 1.00

CN1CCC(N(C)S(=O)(=O)c2ccc(-c3cccc4sc(N)nc34)c(-c3nnn[nH]3)c2S(N)(=O)=O)C1 (stereo not shown) [Example 54, 4-(2-amino-1,3-benzothiazol-4-yl)-N1-methyl-N^1-(1-methylpyrrolidin-3-yl)-3-(1H-tetrazol-5-yl)benzene-1,2-disulfonamide]
Efflux ratio: 2.00

Nc1nc2c(-c3ccc(S(=O)(=O)N4CCC(N)(CO)C4)c(S(N)(=O)=O)c3-c3nnn[nH]3)cccc2s1 (stereo not shown) [Example 55, 3-(2-amino-1,3-benzothiazol-4-yl)-6-{[3-amino-3-(hydroxymethyl)pyrrolidin-1-yl]sulfonyl}-2-(1H-tetrazol-5-yl)benzenesulfonamide]
Efflux ratio: 1.00

CCC1(NS(=O)(=O)c2ccc(-c3cccc4sc(N)nc34)c(-c3nnn[nH]3)c2S(N)(=O)=O)CCNC1 (stereo not shown) [Example 56, 4-(2-amino-1,3-benzothiazol-4-yl)-N1-(3-ethylpyrrolidin-3-yl)-3-(1H-tetrazol-5-yl)benzene-1,2-disulfonamide]
Efflux ratio: 1.00

CC1(NS(=O)(=O)c2ccc(-c3cccc4sc(N)nc34)c(-c3nnn[nH]3)c2S(N)(=O)=O)CCCNC1 (stereo not shown) [Example 57, 4-(2-amino-1,3-benzothiazol-4-yl)-N1-(3-methylpiperidin-3-yl)-3-(1H-tetrazol-5-yl)benzene-1,2-disulfonamide]
Efflux ratio: 1.00

Nc1nc2c(-c3ccc(S(=O)(=O)N[C@@H]4CNC[C@@H]4F)c(S(N)(=O)=O)c3-c3nnn[nH]3)cccc2s1 [Example 58, 4-(2-amino-1,3-benzothiazol-4-yl)-N1-[(3R,4S)-4-fluoropyrrolidin-3-yl]-3-(1H-tetrazol-5-yl)benzene-1,2-disulfonamide]
Efflux ratio: 1.00

Nc1nc2c(-c3ccc(S(=O)(=O)N[C@H]4CNC[C@@H]4F)c(S(N)(=O)=O)c3-c3nnn[nH]3)cccc2s1 [Example 59, 4-(2-amino-1,3-benzothiazol-4-yl)-N1-[(3S,4S)-4-fluoropyrrolidin-3-yl]-3-(1H-tetrazol-5-yl)benzene-1,2-disulfonamide]
Efflux ratio: 1.00

Nc1nc2c(-c3ccc(S(=O)(=O)N[C@H]4CCNC4)c(S(N)(=O)=O)c3-c3nnn[nH]3)cccc2s1 [Example 60, 4-(2-amino-1,3-benzothiazol-4-yl)-N1-[(3S)-pyrrolidin-3-yl]-3-(1H-tetrazol-5-yl)benzene-1,2-disulfonamide]
Efflux ratio: 0.50

Nc1nc2c(-c3ccc(S(=O)(=O)N4CC[C@H](N)C4)c(S(N)(=O)=O)c3-c3nnn[nH]3)cccc2s1 [Example 61, 3-(2-amino-1,3-benzothiazol-4-yl)-6-{[(3S)-3-aminopyrrolidin-1-yl]sulfonyl}-2-(1H-tetrazol-5-yl)benzenesulfonamide]
Efflux ratio: 1.00

Nc1nc2c(-c3ccc(S(=O)(=O)N4CC[C@@H](N)C4)c(S(N)(=O)=O)c3-c3nnn[nH]3)cccc2s1 [Example 62, 3-(2-amino-1,3-benzothiazol-4-yl)-6-{[(3R)-3-aminopyrrolidin-l-yl]sulfonyl}-2-(1H-tetrazol-5-yl)benzenesulfonamide]
Efflux ratio: 1.00

Nc1nc2c(-c3ccc(S(=O)(=O)N[C@@H]4CCNC4)c(S(N)(=O)=O)c3-c3nnn[nH]3)cccc2s1 [Example 63, 4-(2-amino-1,3-benzothiazol-4-yl)-N1-[(3R)-pyrrolidin-3-yl]-3-(1H-tetrazol-5-yl)benzene-1,2-disulfonamide]
Efflux ratio: 0.50

CN(C1CCCNC1)S(=O)(=O)c1ccc(-c2cccc3sc(N)nc23)c(-c2nnn[nH]2)c1S(N)(=O)=O (stereo not shown) [Example 64, 4-(2-amino-1,3-benzothiazol-4-yl)-N1-methyl-N1-piperidin-3-yl-3-(1H-tetrazol-5-yl)benzene-1,2-disulfonamide]
Efflux ratio: 2.00
